Reference: article PMC10094648, “Short, Lipidated Dendrimeric γ-AApeptides as New Antimicrobial Peptidomimetics” (International Journal of Molecular Sciences, 2023)
Read-outs that look alike come from different tables or passages of the source.

Tests used:
Human red blood cells [1] = test: Hemolytic activity; conditions: HC50 over MIC against MRSA
Experimental: (§10) Human red blood cells were washed with 1 × PBS buffer, then centrifuged at 700 g for 10 min. After discarding the top clear solution, the bottom cells were diluted to obtain 5% solution using 1 × PBS buffer.
(§11) Then, 50 μL of cell solution was injected into 96-well plates. Following this, 50 μL of synthesized compounds with different concentrations from 250 to 1.95 μg/mL were added into 96-well plates. Then, the mixture was incubated for 1 h at 37 °C. After centrifuging at 3500× g rpm for 10 min, 30 μL of the supernatant was transferred into a new 96-well plate with 100 μL of 1 × PBS buffer. With the same microplate reader, the data of absorbance at 540 nm were compared. Positive control: 2% Triton-100. Calculation formula: percentage of hemolysis = [(Absorbance of sample-Absorbance of PBS)/(Absorbance of Triton-Absorbance of PBS)] × 100

Human red blood cells [2] = conditions: red cells of human, 1 h
Experimental: as §10, §11

MRSA (ATCC 33591) = type: cell-based, methicillin-resistant Staphylococcus aureus
Experimental: (§1) Chemical reagents and solvents were bought from Sigma Aldrich, Oakwood, TCI, and Chem-Impex. Final products were purified with Waters Breeze 2 HPLC and lyophilized using Labconco lyophilizer. HPLC traces of the final product were collected using 5–95% acetonitrile in water with 0.1% HPLC-grade TFA for at least 40 min. The nuclear magnetic resonance (NMR) data were collected using the Agilent 600 MHz NEO instrument. High-resolution mass spectra of compounds (Table S1) were collected using an Agilent Technologies 6540 UHD accurate-mass Q-TOF LC/MS spectrometer. Antibacterial assays and mechanism of action studies were performed using a Biotec multimode microplate reader synergy H4. Six different species of bacteria were used for bacteria assay tests, such as MRSA (ATCC 33591), MRSE (RP62A), VREF (ATCC 700802), E. coli (ATCC 25922), K. pneumoniae (ATCC 13383), and P. aeruginosa (ATCC 27853).
(§2) Concisely, E. coli, K. pneumoniae, P. aeruginosa, MRSA, MRSE, and VREF were cultivated in 37 °C TSB medium for 16 h. Subsequently, 4 ml of new TSB medium was added to 100 μL of cultivated bacterial solution and incubated for another 6 h to reach the mid-log phase. Next, 96-well plates were injected with 50 μL of bacterial solution that reached mid-log phase and 50 μL of compounds with different concentrations, which ranged from 0.75–25 μg/mL. Then, the 96-wells plates were incubated for another 16 h at 37 °C. After 16 h, MICs were determined by a multimode microplate reader.

E.F. (VREF, ATCC 700802) = type: cell-based; conditions: ATCC 700802, 16 h
Experimental: as §1, §2

E. coli (ATCC 25922) = type: cell-based; conditions: ATCC 25922, 16 h
Experimental: as §1, §2

[3] = system: P. aeruginosa (ATCC 27853); type: cell-based; conditions: ATCC 27853, 16 h
Experimental: as §1, §2

[4] = system: K. pneumoniae (ATCC 13383); type: cell-based; conditions: ATCC 13383, 16 h
Experimental: as §1, §2

MRSE (RP62A) = type: cell-based; conditions: 16 h
Experimental: as §1, §2

E. coli [5] = test: Outer membrane (OM) permeabilization (NPN uptake); type: cell-based; conditions: 1 × MIC, compared with 1% Triton
Source text: Next, using E. coli as a microorganism, we evaluated the OM permeabilization of YW-1. In aqueous conditions, 1-N-Phenylnaphthylamine (NPN) is blocked by the cell wall. However, if the OM is permeabilized, and NPN is taken up as a result, the fluorescence intensity will increase, compared to non-treated OM [13].

MRSA [6] = test: Drug resistance study (serial passages); type: cell-based, methicillin-resistant Staphylococcus aureus; conditions: after 14 generations
Experimental: Since the abuse of antibiotics, antibacterial drug resistance has become an increasingly serious threat. Thus, it is of great importance to assess the drug resistance of newly developed lead compounds.
The first generation of MIC data of YW-1 against MRSA and E. coli was already obtained in an MIC study. Then, the MRSA of the first generation in the well next to the last clear well was diluted to the mid-log phase, and MICs were tested at 37 °C. This step was repeated for 14 passages. The data of drug resistance for E. coli were obtained using the same method with bacterial E. coli.

E. coli [7] = test: Time-kill kinetics study; type: cell-based; conditions: 4 × MIC and 8 × MIC, TSB medium
Experimental: (§3) To evaluate how rapidly bacteria could be eradicated, the lead compound YW-1 was examined for its ability to eradicate MRSA and E. coli by studying the time-kill kinetics.
(§4) Different concentrations of YW-1 and ciprofloxacin were mixed with 300 μL of mid-log phase bacterial solution in TSB medium. The mixture was incubated for 0, 10, and 30 min and 1 and 2 h, respectively. At the time, E. coli were diluted 100-fold, and the MRSA was diluted 100-fold. A total of 100 μL of each was transferred on TSB agar plates. After 16 h at 37 °C, CFUs were read using the Biotec multimode microplate reader.

MRSA [8] = test: Transmission electron microscopy (TEM); type: cell-based, methicillin-resistant Staphylococcus aureus; conditions: 2 × MIC, 2 h
Experimental: (§5) TEM microscopy offers convenient access to check the intactness of cell membranes. The cell membranes of MRSA and E. coli were intact.
(§6) An amount of 30 μL of mid-log phase MRSA and E. coli was diluted to 3 mL in TSB medium with 2 × MIC of YW-1, and the mixture was incubated for 2 h. The bacterial pellets were centrifuged at 3000× g rpm for 10 min. For the next step, PBS buffer was used to wash three times. Then, the suspended bacterial samples were dropped on grids and dried in a vacuum oven at 45 °C. TEM images were obtained using a FEI Morgagni 268D TEM, with an Olympus MegaView III CAMERA on the microscope, at 60 kV.

MRSA [9] = test: Fluorescence microscopy (DAPI / PI staining); type: cell-based, methicillin-resistant Staphylococcus aureus; conditions: 2 × MIC, 2 h at 37 °C, PI channel
Experimental: (§7) To further assess that the bacteria were killed with YW-1 by comprising the cell membrane, we conducted a fluorescence microscopy experiment. Two dyes, 4′,6-diamidino-2-phenylindole (DAPI) and propidium iodide (PI), were employed in this experiment. […] Instead, DAPI can be used to stain both dead and live cells because it is cell-permeable.
(§8) A total of 30 μL of mid-log phase bacterial solution was diluted to 3 mL in TSB medium with 2 × MIC of YW-1. The mixture was incubated for 2 h at 37 °C. Following this, the bacterial solution was centrifuged at 3000 rpm for 10 min. The top solution was thrown away, the bottom bacterial pellets were washed with PBS buffer, and PI (5 μg/mL) and DAPI (10 μg/mL) were added sequentially on ice under a dark environment. After dyeing with PI and DAPI, the bacterial cells were washed with PBS buffer. Immediately after 100 μL of PBS was added to suspend the bacterial cell, 10 μL of the suspended solution was dropped onto the slide, and data were obtained using a Zeiss Axiovert 200 inverted microscope.

E. coli [10] = test: Fluorescence microscopy (DAPI / PI staining); type: cell-based; conditions: 2 × MIC, 2 h at 37 °C, PI channel
Experimental: as §7, §8

MRSA [11] = test: Time-kill kinetics study; type: cell-based, methicillin-resistant Staphylococcus aureus; conditions: 4 × MIC and 8 × MIC, TSB medium
Experimental: as §3, §4

E. coli [12] = test: Membrane depolarization study (diSC35 dye); type: cell-based
Source text: (§9) To probe the mechanism of antibacterial activity, we first carried out a membrane depolarization study with the membrane potential-sensitive dye 3,3′-dipropylthiadicarbocyanine iodide (diSC35) (Figure 2A,B). […] However, if the membrane is disrupted, and the fluorophore is released from the membrane, fluorescence will improve dramatically.

E. coli [13] = test: Transmission electron microscopy (TEM); type: cell-based; conditions: 2 × MIC, 2 h
Experimental: as §5, §6

E. coli [14] = test: Inner membrane (IM) permeabilization (ONPG hydrolysis assay); type: cell-based; conditions: 8 × MIC, 4 × MIC, 2 × MIC and 1 × MIC, 37 °C
Experimental: We next used the o-nitrophenyl-β-d-galactopyranoside (ONPG) hydrolysis assay to test the ability of the lead compound YW-1 to permeabilize the inner membrane of Gram-negative bacteria (Figure 3B). If the lead compound YW-1 compromised the bacterial inner membrane, ONPG would interact with the cytoplasmic enzyme β-galactosidase to form o-nitrophenol, which can be measured under OD 420 nm.
Mid-log phase E. coli was obtained in Mueller Hinton Broth with 2% lactose at 37 °C; then, it was centrifuged at 3000× g rpm for 10 min at 4 °C and washed with 20 mM glucose and 1.5 mM ONPG in […] HEPES buffer one time. Next, the bacterial solution was diluted until OD600 = 0.1 using the same buffer. Following this, 50 μL of diluted bacterial solution was injected into a 96-well plate, and 50 μL of YW-1 in different concentrations and melittin were injected into the bacterial solution, respectively. The OD420 was read at 37 °C every 6 min until the […] reached the highest plateau.

MRSA [15] = test: Membrane depolarization study (diSC35 dye); type: cell-based, methicillin-resistant Staphylococcus aureus
Source text: as §9

[16] = TSB medium, 16 h at 37 °C, compounds 0.75–25 μg/mL, microplate reader

Structure (SMILES)	Selectivity Index (HC50/MICMRSA) (Human red blood cells [1])	HC50 (Human red blood cells [2]) [µg/mL]	MIC, Gram-Positive (+), MRSA (MRSA (ATCC 33591); [16]) [µg/mL]	MIC, Gram-Positive (+), E.F. (E.F. (VREF, ATCC 700802)) [µg/mL]	MIC, Gram-Negative (−), E. coli (E. coli (ATCC 25922)) [µg/mL]	MIC, Gram-Negative (−), P.A. [3] [µg/mL]	MIC, Gram-Negative (−), K.P. [4] [µg/mL]	MIC, Gram-Positive (+), MRSE (MRSE (RP62A)) [µg/mL]	increase in MIC (drug resistance) (MRSA [6])	further results
CCCCCCCCCCCCCCCC(=O)N[C@@H](Cc1ccc(O)cc1)CN(CC(N)=O)C(=O)CCN(C[C@@H](N)CCCCN)C(=O)CCN [YW-4]	>83.3	>125	0.75 to 1.5	3.0 to 6.0	3.0 to 6.0	>25	>25	3.0 to 6.0	–	–
CCCCCCCCCCCCCCCC(=O)N[C@@H](CC(C)C)CN(CC(N)=O)C(=O)CCN(C[C@@H](N)CCCCN)C(=O)CCN [YW-1]	>41.7	>125	–	1.5 to 3	3.0 to 6.0	6 to 12.5	12.5 to 25	1.5 to 3	did not have an obvious change in MIC	Outer membrane permeability (E. coli [5]): 98%; time to remove bacteria thoroughly (E. coli [7]): ≤ 2 h; membrane intactness by TEM (MRSA [8]): the membranes clearly demonstrated damages; PI staining (compromised membrane) (MRSA [9]): red fluorescence was observed under the PI channel; MIC, Gram-Positive (+), MRSA (MRSA (ATCC 33591); ATCC 33591, 16 h): 1.5 to 3 µg/mL; PI staining (compromised membrane) (E. coli [10]): red fluorescence was observed under the PI channel; time to remove bacteria thoroughly (MRSA [11]): ≤ 2 h; fluorescence intensity of diSC35 (membrane depolarization) (E. coli [12]; E. coli treated with different concentrations): dose-dependent increases in fluorescence intensity; fluorescence of diSC35 compared with positive control Triton (E. coli [12]; E. coli, at a two-fold of MIC or above): even more intensive fluorescence than the positive control Triton; membrane intactness by TEM (E. coli [13]): the membranes clearly demonstrated damages; inner membrane permeabilization, OD 420 nm intensity (E. coli [14]): enhanced to a great extent; fluorescence intensity of diSC35 (membrane depolarization) (MRSA [15]; MRSA treated with different concentrations): dose-dependent increases in fluorescence intensity; fluorescence of diSC35 compared with positive control Triton (MRSA [15]; MRSA, at a two-fold of MIC or above): even more intensive fluorescence than the positive control Triton
O=C(O)c1cn(C2CC2)c2cc(N3CCNCC3)c(F)cc2c1=O [ciprofloxacin, reference compound]	–	–	–	–	–	–	–	–	about 100 fold	–
CCCCCCCCCCCCCCCC(=O)N[C@@H](CCCCNC(=N)N)CN(CC(N)=O)C(=O)CCN(C[C@@H](N)CCCCN)C(=O)CCN [YW-7]	>83.3	>125	0.75 to 1.5	3.0 to 6.0	3.0 to 6.0	12.5 to 25	>25	3.0 to 6.0	–	–
